For 24 compounds, activity results are on record in patent US20100048660A1, “TREATMENT OF DUCHENNE MUSCULAR DYSTROPHY” (priority 2006, published 2010).

Structures are written as SMILES. Some results are limits rather than exact numbers.

One experiment relates to Utrophin A promoter linked to a luciferase reporter gene (H2K/mdx/Utro A reporter cell line). Nature of the experiment: Luciferase reporter assay (murine H2K cells). The experiment is classed as cell-based. To be noted: Mus musculus; Table 1; murine H2K mdx myoblasts, compound final concentration 10 μM, 48 hrs; read-out: Activity (luciferase reporter assay, relative to control). As for the experimental part: 1. Luciferase Reporter Assay (Murine H2K Cells)
The cell line used for the screen is an immortalized mdx mouse H2K cell line that has been stably transfected with a plasmid containing ≈5 kb fragment of the Utrophin A promoter including the first untranslated exon linked to a luciferase reporter gene (see FIG. 1).
Under conditions of low temperature and interferon containing media, the cells remain as myoblasts. These are plated into 96 well plates and cultured in the presence of compound for three days. The level of luciferase is then determined by cell lysis and reading of the light output from the expressed luciferase gene utilising a plate luminometer.
The H2K/mdx/Utro A reporter cell line was passaged twice a week until ≦30% confluent. The cells were grown at 33° C. in the presence of 10% CO2
The H2K/mdx/Utro A reporter cell line cells were plated out into 96 well plates (Falcon 353296, white opaque) at a density of approximately 5000 cells/well in 190 μl normal growth medium. The plates were then incubated at 33° C. in the presence of 10% CO2 for 24 hrs.
Compounds were dosed by adding 10 μl of diluted compound to each well giving a final concentration of 10 μM. The plates were then incubated for a further 48 hrs
Cells were then lysed in situ following the manufacture's protocols (Promega Steady-Glo Luciferase Assay System (E2520). Then counted for 10 seconds using a plate luminometer (Victorl420).
As to `Cc1cc2nn(-c3ccc(Cl)cc3)nc2cc1NC(=O)c1cccs1` [Example 6, N-(2-(4-chlorophenyl)-6-methyl-2H-benzo[d][1,2,3]triazol-5-yl)thiophene-2-carboxamide], the activity at 10 µM fell in the range of 301 to 400%.
`CCN(CC)c1ccc(-n2nc3ccc(NC(=O)c4ccc(OC)cc4)cc3n2)cc1` [Example 30, N-(2-(4-(diethylamino)phenyl)-2H-benzo[d][1,2,3]triazol-5-yl)-4-methoxybenzamide]: the activity at 10 µM was less than 200%.
As for `O=[N+]([O-])c1ccc2cn(-c3ccc(Cl)cc3)nc2c1` [Example 45, 2-(4-chlorophenyl)-6-nitro-2H-indazole], the activity at 10 µM is less than 200%.
For the compound `Clc1ccc(-n2cc3ccccc3n2)cc1` [Example 48, 2-(4-chlorophenyl)-2H-indazole], the activity at 10 µM is greater than 401%.
For the compound `COc1ccc(C(=O)Nc2cc3nn(-c4ccc(Cl)cc4)nc3cc2C)cc1` [Example 4, N-(2-(4-chlorophenyl)-6-methyl-2H-benzo[d][1,2,3]triazol-5-yl)-4-methoxybenzamide], the activity at 10 µM was in the range of 201 to 300%.
Consider `Cc1cc2nn(-c3ccc(Cl)cc3)nc2cc1NC(=O)c1cccnc1` [Example 1, N-(2-(4-chlorophenyl)-6-methyl-2H-benzo[d][1,2,3]triazol-5-yl)nicotinamide], for which the activity at 10 µM lay in the range of 301 to 400%.
Same read-out and setting: the result for `CN(C)c1ccc(-n2nc3ccc(N)cc3n2)cc1` [Example 41, 2-(4-(dimethylamino)phenyl)-2H-benzo[d][1,2,3]triazol-5-amine] reads 301 to 400%; that for `Cc1cc2nn(-c3ccc(Cl)cc3)nc2cc1NC(=O)c1ccco1` [Example 11, N-(2-(4-chlorophenyl)-6-methyl-2H-benzo[d][1,2,3]triazol-5-yl)furan-2-carboxamide], 201 to 300%.
As for `CC(C)C(=O)Nc1ccc2nn(-c3ccc(Cl)c(Cl)c3)nc2c1` [Example 53, N-(2-(3,4-Dichlorophenyl)-2H-benzo[d][1,2,3]triazol-5-yl)isobutyramide], the activity at 10 µM is greater than 401%.
The same measure, in the same setting: the result for `CCCCC(=O)Nc1cc2nn(-c3ccc(N(CC)CC)cc3)nc2cc1C` [Example 16, N-(2-(4-(diethylamino)phenyl)-6-methyl-2H-benzo[d][1,2,3]triazol-5-yl)pentanamide] reads less than 200%; that for `CCC(=O)Nc1cc2nn(-c3ccc(N(CC)CC)cc3)nc2cc1C` [Example 14, N-(2-(4-(diethylamino)phenyl)-6-methyl-2H-benzo[d][1,2,3]triazol-5-yl)propionamide], less than 200%; that for `CS(=O)(=O)c1ccc2nn(-c3ccc(Cl)c(Cl)c3)nc2c1` [Example 50, 2-(3,4-dichlorophenyl)-5-(methylsulfonyl)-2H-benzo[d][1,2,3]triazole], 201 to 300%.
Still for that read-out and setting: the result for `CCN(CC)c1ccc(-n2nc3ccc(NC(C)=O)cc3n2)cc1` [Example 22, N-(2-(4-(diethylamino)phenyl)-2H-benzo[d][1,2,3]triazol-5-yl)acetamide] reads 201 to 300%; that for `CCN(CC)c1ccc(-n2nc3ccc(NC(=O)c4cccnc4)cc3n2)cc1` [Example 20, N-(2-(4-(diethylamino)phenyl)-2H-benzo[d][1,2,3]triazol-5-yl)nicotinamide], 201 to 300%.
`CCS(=O)(=O)c1ccc2nn(-c3ccc(Cl)c(Cl)c3)nc2c1` [Example 51, 2-(3′,4′-dichlorophenyl)-5-(ethylsulfonyl)-benzotriazole]: the activity at 10 µM was in the range of 301 to 400%.
In the case of `CCN(CC)c1ccc(-n2nc3ccc(NC(=O)c4ccco4)cc3n2)cc1` [Example 27, N-(2-(4-(diethylamino)phenyl)-2H-benzo[d][1,2,3]triazol-5-yl)furan-2-carboxamide], the activity at 10 µM is less than 200%.
Consider `CCN(CC)c1ccc(-n2nc3ccc(NC(=O)c4ccc(N(C)C)cc4)cc3n2)cc1` [Example 33, N-(2-(4-(diethylamino)phenyl)-2H-benzo[d][1,2,3]triazol-5-yl)-4-(dimethylamino)benzamide], for which the activity at 10 µM was less than 200%.
Regarding `CC(C)C(=O)Nc1ccc2cn(-c3ccc(Cl)cc3)nc2c1` [Example 46, N-(2-(4-chlorophenyl)-2H-indazol-6-yl)isobutyramide], the activity at 10 µM was greater than 401%.
Take `CCN(CC)c1ccc(-n2nc3ccc(N)cc3n2)cc1` [Example 19, 2-(4-(diethylamino)phenyl)-2H-benzo[d][1,2,3]triazol-5-amine]: the activity at 10 µM was 301 to 400%.
Consider `CCC(=O)Nc1cc2nn(-c3ccc(Cl)cc3)nc2cc1C` [Example 7, N-(2-(4-chlorophenyl)-6-methyl-2H-benzo[d][1,2,3]triazol-5-yl)propionamide], for which the activity at 10 µM is less than 200%.
Take `CC(C)S(=O)(=O)c1ccc2cn(-c3ccc(Cl)cc3)nc2c1` [Example 56, 2-(4′-Chlorophenyl)-6-(isopropylsulfonyl)-2H-indazole]: the activity at 10 µM was greater than 401%.
`CCCC(=O)Nc1ccc2nn(-c3ccc(Cl)cc3)nc2c1` [Example 36, N-(2-(4-chlorophenyl)-2H-benzo[d][1,2,3]triazol-5-yl)butyramide]: the activity at 10 µM lay within 301 to 400%.

The same experiment, now with this note: Mus musculus; Table 2; murine H2K mdx myoblasts, compound final concentration 10 μM, 48 hrs; read-out: Activity (luciferase reporter assay, relative to control).
Turning to `Cc1ccc(-n2nc3cc(C)c(N)cc3n2)cc1` [Example 65, 6-methyl-2-p-tolyl-2H-benzo[d][1,2,3]triazol-5-amine], the activity at 10 µM lay within 201 to 300%.
Consider `Cc1ccc(-n2nc3ccc(N)cc3n2)cc1C` [Example 63, 2-(3,4-dimethylphenyl)-2H-benzo[d][1,2,3]triazol-5-amine], for which the activity at 10 µM is less than 200%.
